Measurements published in ChEMBL document CHEMBL1125663, “Function of negative charge in the "address domain" of deltorphins” (J Med Chem, 1991).
Square brackets hold non-standard residues; d marks the D form. Peptide text beside a SMILES is read from it.

Key:
Assay type in all cases: cell membranes
[1] = target: T1, Delta-type opioid receptor (Rattus norvegicus, UniProt P33533); test: Binding affinity against Opioid receptor delta 1 in P2 membrane preparation of rat brain by [3H]DADLE displacement.
Mu-type opioid receptor [2] = target: T2, Mu-type opioid receptor (Rattus norvegicus, UniProt P33535); test: Binding affinity against Opioid receptor mu 1 in P2 membrane preparation of rat brain by [3H]DAGO displacement.
[3] = target: T1, Delta-type opioid receptor; test: Inhibition of [3H]-DADLE binding to opioid receptor delta in P2 membrane preparation of rat brain
Mu-type opioid receptor [4] = target: T2, Mu-type opioid receptor; test: Inhibition of [3H]DAGO binding to trat brain opioid receptor mu in P2 membrane

T1 sequence (P33533 whole entry): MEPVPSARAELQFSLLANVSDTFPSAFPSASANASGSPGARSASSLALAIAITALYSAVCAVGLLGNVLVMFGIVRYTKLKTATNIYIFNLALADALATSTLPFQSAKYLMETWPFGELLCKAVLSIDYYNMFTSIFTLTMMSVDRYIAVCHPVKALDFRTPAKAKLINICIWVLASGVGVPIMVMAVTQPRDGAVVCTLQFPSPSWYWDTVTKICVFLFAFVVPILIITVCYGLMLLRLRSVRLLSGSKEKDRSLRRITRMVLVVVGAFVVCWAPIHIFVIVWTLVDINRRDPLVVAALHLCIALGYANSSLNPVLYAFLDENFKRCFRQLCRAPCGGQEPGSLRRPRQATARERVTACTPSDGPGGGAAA
T2 sequence (P33535 whole entry): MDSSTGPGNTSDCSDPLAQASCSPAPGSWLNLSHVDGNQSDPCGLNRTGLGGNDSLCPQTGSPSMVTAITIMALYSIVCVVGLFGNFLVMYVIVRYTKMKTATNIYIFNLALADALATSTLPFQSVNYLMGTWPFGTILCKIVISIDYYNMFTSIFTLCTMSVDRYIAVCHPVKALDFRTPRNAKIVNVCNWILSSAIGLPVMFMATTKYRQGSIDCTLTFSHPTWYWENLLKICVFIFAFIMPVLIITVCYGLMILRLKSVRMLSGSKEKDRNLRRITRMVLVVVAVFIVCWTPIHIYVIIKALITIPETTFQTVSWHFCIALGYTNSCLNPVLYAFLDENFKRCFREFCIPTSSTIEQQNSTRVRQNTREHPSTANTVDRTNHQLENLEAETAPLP

| Compound | Ki [1] | Ki (Mu-type opioid receptor [2]) | Ki [3] | Ki (Mu-type opioid receptor [4]) |
| --- | --- | --- | --- | --- |
| CSCC[C@H](NC(=O)[C@H](CC(C)C)NC(=O)[C@H](Cc1cnc[nH]1)NC(=O)[C@H](Cc1ccccc1)NC(=O)[C@@H](CCSC)NC(=O)[C@@H](N)Cc1ccc(O)cc1)C(=O)N[C@@H](CC(=O)O)C(C)=O | 0.155 µM | 3.22 µM |  |  |
| CC(C)[C@H](NC(=O)[C@H](CC(=O)O)NC(=O)[C@H](Cc1ccccc1)NC(=O)[C@H](C)NC(=O)[C@@H](N)Cc1ccc(O)cc1)C(=O)N[C@H](C(=O)NCC(=O)O)C(C)C | 0.00601 µM | 1.64 µM |  |  |
| CCCC[C@H](NC(=O)[C@H](CC(C)C)NC(=O)[C@H](Cc1cnc[nH]1)NC(=O)[C@H](Cc1ccccc1)NC(=O)[C@@H](CCSC)NC(=O)[C@@H](N)Cc1ccc(O)cc1)C(=O)N[C@@H](CC(=O)O)C(N)=O | 0.00022 µM | 0.206 µM |  |  |
| CSCC[C@H](NC(=O)[C@H](CC(C)C)NC(=O)[C@H](CC(=O)O)NC(=O)[C@H](Cc1ccccc1)NC(=O)[C@@H](CCSC)NC(=O)[C@@H](N)Cc1ccc(O)cc1)C(=O)N[C@@H](CC(=O)O)C(N)=O | 0.00771 µM | 10.6 µM |  |  |
| CSCC[C@H](NC(=O)[C@H](CC(C)C)NC(=O)[C@H](Cc1c[nH]cn1)NC(=O)[C@H](Cc1ccccc1)NC(=O)[C@@H](CCSC)NC(=O)[C@@H](N)Cc1ccc(O)cc1)C(=O)N[C@@H](CC(N)=O)C(N)=O | 0.00022 µM | 0.119 µM |  |  |
| CSCC[C@H](NC(=O)[C@H](CC(=O)O)NC(=O)[C@H](CC(=O)O)NC(=O)[C@H](Cc1ccccc1)NC(=O)[C@@H](CCSC)NC(=O)[C@@H](N)Cc1ccc(O)cc1)C(=O)N[C@@H](Cc1c[nH]cn1)C(N)=O | 1.9 µM | 1.57 µM |  |  |
| CC(C)[C@H](NC(=O)[C@H](CCC(N)=O)NC(=O)[C@H](Cc1ccccc1)NC(=O)[C@@H](C)NC(=O)[C@@H](N)Cc1ccc(O)cc1)C(=O)N[C@H](C(=O)NCC(=O)O)C(C)C | 0.0002 µM | 0.153 µM |  |  |
| CSCC[C@@H](NC(=O)[C@@H](N)Cc1ccc(O)cc1)C(=O)N[C@@H](Cc1ccccc1)C(=O)N[C@@H](Cc1cnc[nH]1)C(=O)N[C@@H](CC(C)C)C(=O)N[C@@H](CC(=O)O)C(=O)N[C@@H](CC(=O)O)C(N)=O | 0.00308 µM | 3.41 µM |  |  |
| CSCC[C@@H](NC(=O)[C@@H](N)Cc1ccc(O)cc1)C(=O)N[C@@H](Cc1ccccc1)C(=O)N[C@@H](Cc1cnc[nH]1)C(=O)N[C@@H](CC(C)C)C(=O)N[C@@H](CC(=O)O)C(=O)N[C@@H](CC(=O)O)C(=O)O | 0.00601 µM | 2.09 µM |  |  |
| CC(C)[C@H](NC(=O)CNC(=O)[C@H](Cc1ccccc1)NC(=O)[C@H](C)NC(=O)[C@@H](N)Cc1ccc(O)cc1)C(=O)N[C@H](C(=O)N[C@@H](CC(=O)O)C(=O)O)C(C)C (H-YAFGVVD-OH) | 0.00879 µM | 0.0575 µM |  |  |
| CC(C)[C@H](NC(=O)[C@H](CC(N)=O)NC(=O)[C@H](Cc1ccccc1)NC(=O)[C@H](C)NC(=O)[C@@H](N)Cc1ccc(O)cc1)C(=O)N[C@H](C(=O)NCC(N)=O)C(C)C (H-YAFNVVG-NH2) |  |  | 0.00065 µM | 0.176 µM |
| CC(C)[C@H](NC(=O)[C@H](CC(=O)O)NC(=O)[C@@H](NC(=O)[C@H](Cc1ccccc1)NC(=O)[C@H](C)NC(=O)[C@@H](N)Cc1ccc(O)cc1)C(C)C)C(=O)NCC(N)=O (H-YAFVDVG-NH2) | 0.00123 µM | 0.275 µM |  |  |
| CC(C)[C@H](NC(=O)[C@H](Cc1ccccc1)NC(=O)[C@H](C)NC(=O)[C@@H](N)Cc1ccc(O)cc1)C(=O)N[C@H](C(=O)N[C@@H](CC(=O)O)C(=O)NCC(N)=O)C(C)C (H-YAFVVDG-NH2) | 0.00942 µM | 0.149 µM |  |  |
| CSCC[C@H](NC(=O)[C@H](CC(C)C)NC(=O)[C@H](Cc1c[nH]cn1)NC(=O)[C@H](Cc1ccccc1)NC(=O)[C@@H](CCSC)NC(=O)[C@@H](N)Cc1ccc(O)cc1)C(=O)N[C@@H](CC(=O)O)C(=O)O (H-Y[dM]FHLMD-OH) | 0.0108 µM | 2.69 µM |  |  |
| C[C@@H](NC(=O)[C@@H](N)Cc1ccc(O)cc1)C(=O)NCC(=O)N(C)[C@@H](Cc1ccccc1)C(=O)NCCO [DAMGO] | 0.18 µM |  |  |  |
| CSCC[C@H](NC(=O)[C@H](CC(C)C)NC(=O)[C@H](Cc1cnc[nH]1)NC(=O)[C@H](Cc1ccccc1)NC(=O)[C@@H](CCSC)NC(=O)[C@@H](N)Cc1ccc(O)cc1)C(=O)N[C@@H](CC(=O)O)C(N)=O [DELTORPHIN A] (H-Y[dM]FHLMD-NH2) | 0.00012 µM | 0.336 µM |  |  |
| CC(C)[C@H](NC(=O)[C@H](CC(=O)O)NC(=O)[C@H](Cc1ccccc1)NC(=O)[C@@H](C)NC(=O)[C@@H](N)Cc1ccc(O)cc1)C(=O)N[C@H](C(=O)NCC(N)=O)C(C)C [DELTORPHIN C] |  |  | 0.00021 µM | 0.387 µM |
| CC(C)[C@H](NC(=O)[C@H](CCC(=O)O)NC(=O)[C@H](Cc1ccccc1)NC(=O)[C@H](C)NC(=O)[C@@H](N)Cc1ccc(O)cc1)C(=O)N[C@H](C(=O)NCC(=O)O)C(C)C [DELTORPHINE II] |  |  | 0.00031 µM |  |
| CC(C)[C@H](NC(=O)[C@H](CCC(=O)O)NC(=O)[C@H](Cc1ccccc1)NC(=O)[C@@H](C)NC(=O)[C@@H](N)Cc1ccc(O)cc1)C(=O)N[C@H](C(=O)NCC(=O)O)C(C)C [DELTORPHIN] |  |  | 0.00797 µM |  |
| C[C@@H](NC(=O)[C@@H](N)Cc1ccc(O)cc1)C(=O)N[C@@H](Cc1ccccc1)C(=O)NCC(=O)N[C@@H](Cc1ccc(O)cc1)C(=O)N1CCC[C@H]1C(=O)N[C@@H](CO)C(N)=O [DERMORPHIN] |  | 0.0007 µM |  |  |
